Experimental data reported in ChEMBL document CHEMBL1201862, “PubChem BioAssay data set” (2004).
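Protocol summary: plate cells (96-well), add compound at 5 concentrations, incubate 48 h, interpolate endpoints linearly. Here, GI50 denotes the concentration required for 50% inhibition of growth.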 Active and inactive are the calls of the source. Cut-off read from the data, not from the text of the source: active = GI50 up to about 1.1 µM and inactive = higher.

Assays:
Assay in all cases: DTP human tumour cell line panel, 48 h
786-0 = tested on: 786-0
A498 = tested on: A498
A549 = tested on: A549
ACHN = tested on: ACHN
CAKI-1 = tested on: CAKI-1
CCRF-CEM = tested on: CCRF-CEM
COLO 205 = tested on: COLO 205
DLD-1 = tested on: DLD-1
DMS-114 = tested on: DMS-114
DMS-273 = tested on: DMS-273
HCC 2998 = tested on: HCC 2998
HCT-116 = tested on: HCT-116
HCT-15 = tested on: HCT-15
HL-60 = tested on: HL-60
HOP-18 = tested on: HOP-18
HOP-62 = tested on: HOP-62
HT-29 = tested on: HT-29
IGROV-1 = tested on: IGROV-1
K562 = tested on: K562
KM-20L2 = tested on: KM-20L2
KM12 = tested on: KM12
LOX IMVI = tested on: LOX IMVI
LXFL 529 = tested on: LXFL 529
M14 = tested on: M14
M19-MEL = tested on: M19-MEL
MOLT-4 = tested on: MOLT-4
Malme-3M = tested on: Malme-3M
NCI-H226 = tested on: NCI-H226
NCI-H23 = tested on: NCI-H23
NCI-H460 = tested on: NCI-H460
NCI-H522 = tested on: NCI-H522
OVCAR-3 = tested on: OVCAR-3
OVCAR-4 = tested on: OVCAR-4
OVCAR-5 = tested on: OVCAR-5
OVCAR-8 = tested on: OVCAR-8
RPMI-8226 = tested on: RPMI-8226
RXF 393 = tested on: RXF 393
SF-268 = tested on: SF-268
SF-295 = tested on: SF-295
SF-539 = tested on: SF-539
SK-MEL-28 = tested on: SK-MEL-28
SK-MEL-2 = tested on: SK-MEL-2
SK-MEL-5 = tested on: SK-MEL-5
SK-OV-3 = tested on: SK-OV-3
SN12C = tested on: SN12C
SNB-19 = tested on: SNB-19
SNB-75 = tested on: SNB-75
SNB-78 = tested on: SNB-78
SW-620 = tested on: SW-620
TK-10 = tested on: TK-10
U-251 = tested on: U-251
UACC-257 = tested on: UACC-257
UACC-62 = tested on: UACC-62
UO-31 = tested on: UO-31

Measured: GI50

COc1cccc(NC(=O)CSc2nnc(Cc3ccccc3)o2)c1
> 100 µM: HCT-15
inactive: 786-0 > 100 µM | A498 > 100 µM | A549 > 100 µM | ACHN 23.3 µM | CAKI-1 > 100 µM | CCRF-CEM > 100 µM | COLO 205 > 100 µM | DLD-1 > 100 µM | DMS-114 > 100 µM | DMS-273 > 100 µM | HCC 2998 > 100 µM | HCT-116 > 100 µM | HL-60 54.3 µM | HOP-18 > 100 µM | HOP-62 > 100 µM | HT-29 > 100 µM | IGROV-1 > 100 µM | K562 > 100 µM | KM-20L2 > 100 µM | KM12 > 100 µM | LOX IMVI > 100 µM | LXFL 529 > 100 µM | M14 > 100 µM | M19-MEL > 100 µM | MOLT-4 > 100 µM | Malme-3M > 100 µM | NCI-H226 > 100 µM | NCI-H23 > 100 µM | NCI-H460 > 100 µM | NCI-H522 > 100 µM | OVCAR-3 > 100 µM | OVCAR-4 > 100 µM | OVCAR-5 > 100 µM | OVCAR-8 > 100 µM | RPMI-8226 > 100 µM | RXF 393 > 100 µM | SF-268 > 100 µM | SF-295 > 100 µM | SF-539 > 100 µM | SK-MEL-28 > 100 µM | SK-MEL-2 > 100 µM | SK-MEL-5 57 µM | SK-OV-3 > 100 µM | SN12C > 100 µM | SNB-19 > 100 µM | SNB-75 51.8 µM | SNB-78 > 100 µM | SW-620 > 100 µM | TK-10 > 100 µM | U-251 > 100 µM | UACC-257 > 100 µM | UACC-62 > 100 µM | UO-31 > 100 µM
